Data taken from USRE42890E1, “Furazanobenzimidazoles” (Basilea Pharmaceutica AG, priority 2003, dated 2011).

What was measured:
Jurkat = test: MTS proliferation assay, Jurkat; type: cell-based, human; details: 72 h incubation, read-out: MTS proliferation assay IC 50 Jurkat
In short: (§1)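 Proliferation: RPMI-1640/FCS complete medium, 37 °C, 7.5% CO2, cells plated 24 h pre-dose; compounds at 10, 3, 1, 0.3 μM final for 72 h; MTS, 492 nm.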

HT1080 = test: MTS proliferation assay, HT1080; type: cell-based, human; details: HT1080, 72 h incubation; read-out: MTS proliferation assay IC 50 HT1080
Procedure: Cell lines are cultured in RPMI-1640 tissue culture medium containing either 5% or 10% fetal calf serum, 0.05 mM 2-mercaptoethanol, 2 mM glutamine and penicillin/streptomycin 50 μg/ml (complete medium) (Sigma, Buchs, Switzerland). General growth conditions are 37° C. and 7.5% CO2.
The following human cell lines (either EGFP transfected or not) are being used: HeLa (ATCC: CCL-2), KB (ATCC: CCL-17), MCF7 (ATCC: HTB-22), SK-BR-3 (ATCC: HTB-30), SK-Mel 1 (ATCC: HTB-67), SK-Mel 28 (ATCC: HTB-72), PC-3 (ATCC: CRL-1435), SW 480 (ATCC: CCL-228), NCl-H460 (ATCC: HTB-177), NCl-H1792 (ATCC: CRL-5895), HT1080 (ATCC: CCL-21), Jurkat (ATCC: TIB-152), Ramos (ATCC: CRL-1596), Raji (ATCC: CCL-86), H9 (ATCC: HTB-176), Hut78 (ATCC: TIB-161), K562 (ATCC: CCL 243), HL-60 (ATCC: CCL 240), U-87MG (ATCC: HTB-14), HepG2 (ATCC: HB-8065), U-2 OS (ATCC: HTB-96), Saos-2 (ATCC: HTB-85), U937 (ATCC: CRL 1593), Hs 578T (ATCC: HTB 126), HBL-100 (ATCC: HTB 124), Molt-4 (ATCC: CRL 1582).
The assay is performed in 96 well tissue culture plates. The cells (range: 1.5*10^3-10^4) are seeded out in 80 μl complete medium 24 h prior to compound treatment. The test compounds are added in 20 μl complete medium containing max 5% DMSO. The final compound concentrations in the assays are 10 μM, 3 μM, 1 μM and 0.3 μM, respectively. The assay plates are incubated for 72 h at culture conditions. The MTS reagent is prepared according to the manufacturer's protocol (Promega G1111). 20 μl MTS reagent are added to each well, the assay plates are quickly spun and incubated for another 3 h at culture conditions. Subsequently, the plates are shortly shaked and absorption measured with a microplate-reader at 492 nm.

HeLa = test: MTS proliferation assay, HeLa; type: cell-based, human; details: 72 h incubation, read-out: MTS proliferation assay IC 50 HeLa
In short: as §1

MRC5 = test: MTS proliferation assay, MRC5; type: cell-based; details: MRC5, 72 h incubation; read-out: MTS proliferation assay IC 50 MRC5
In short: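 Viability after 72 h compound exposure at 10, 3, 1 and 0.3 μM final was scored by MTS absorbance (492 nm, 3 h reagent incubation), with cells kept in RPMI-1640 containing 5% or 10% fetal calf serum.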

[1] = tested on: adherent cells or suspension cells; test: Hoechst 33342 nuclear staining (fraction of apoptotic nuclei); type: cell-based; parameters: key: 0 relating to no activity; 1 relating to weak activity comprising less than 70% of the cells; score 2 relating to strong activity comprising more than 70% of the cells

| Compound | IC50 (Jurkat) [µM] | IC50 (HT1080) [µM] | IC50 (HeLa) [µM] | IC50 (MRC5) [µM] | Hoechst 33342 nuclear staining score ([1]; H460, conc 0.01 μm) | Hoechst 33342 nuclear staining score ([1]; H460, conc 0.1 μm) | Hoechst 33342 nuclear staining score ([1]; H460, conc 1 μm) | Hoechst 33342 nuclear staining score ([1]; HeLa, conc 0.01 μm) | Hoechst 33342 nuclear staining score ([1]; HeLa, conc 0.1 μm) | Hoechst 33342 nuclear staining score ([1]; HeLa, conc 1 μm) | Hoechst 33342 nuclear staining score ([1]; Jily, conc 0.01 μm) | Hoechst 33342 nuclear staining score ([1]; Jily, conc 0.1 μm) | Hoechst 33342 nuclear staining score ([1]; Jily, conc 1 μm) | Hoechst 33342 nuclear staining score ([1]; Jurkat, conc 0.01 μm) | Hoechst 33342 nuclear staining score ([1]; Jurkat, conc 0.1 μm) | Hoechst 33342 nuclear staining score ([1]; Jurkat, conc 1 μm) | Hoechst 33342 nuclear staining score ([1]; MRC5, conc 0.01 μm) | Hoechst 33342 nuclear staining score ([1]; MRC5, conc 0.1 μm) | Hoechst 33342 nuclear staining score ([1]; MRC5, conc 1 μm) | Hoechst 33342 nuclear staining score ([1]; PBLs, conc 0.01 μm) | further results |
| --- | --- | --- | --- | --- | --- | --- | --- | --- | --- | --- | --- | --- | --- | --- | --- | --- | --- | --- | --- | --- | --- |
| COc1ccc(C(=O)Cn2c(-c3nonc3N)nc3cc(OC)c(OC)cc32)cc1 [Example 116] | > 1 | > 1 | > 1 | > 1 | 0 | 0 | 0 | 0 | 0 | 0 | 0 | 0 | 0 | 0 | 0 | 0 | 0 | 0 | 0 | 0 | Hoechst 33342 nuclear staining score ([1]; PBLs, conc 0.1 μm): 0; Hoechst 33342 nuclear staining score ([1]; PBLs, conc 1 μm): 0 |
| COc1cc2nc(-c3nonc3N)n(CC(=O)c3ccc(Br)cc3)c2cc1OC [Example 115] | > 1 | > 1 | > 1 | > 1 | 0 | 0 | 0 | 0 | 0 | 0 | 0 | 0 | 0 | 0 | 0 | 0 | 0 | 0 | 0 | 0 | Hoechst 33342 nuclear staining score ([1]; PBLs, conc 0.1 μm): 0; Hoechst 33342 nuclear staining score ([1]; PBLs, conc 1 μm): 0 |
| Cc1cc2nc(-c3nonc3N)n(CC(=O)c3ccc(Cl)cc3)c2cc1C [Example 110] | > 1 | > 1 | > 1 | > 1 | 0 | 0 | 0 | 0 | 0 | 0 | 0 | 0 | 0 | 0 | 0 | 0 | 0 | 0 | 0 | 0 | Hoechst 33342 nuclear staining score ([1]; PBLs, conc 0.1 μm): 0; Hoechst 33342 nuclear staining score ([1]; PBLs, conc 1 μm): 0 |
| N#Cc1ccc(C(=O)Cn2c(-c3nonc3N)nc3ccccc32)cc1 [Example 63] | > 1 | > 1 | > 1 | > 1 | 0 | 0 | 0 | 0 | 0 | 0 | 0 | 0 | 0 | 0 | 0 | 0 | 0 | 0 | 0 | 0 | Hoechst 33342 nuclear staining score ([1]; PBLs, conc 0.1 μm): 0; Hoechst 33342 nuclear staining score ([1]; PBLs, conc 1 μm): 0 |
